According to patent US4522944A, “Carboxamido-derivatives of 5H-1,3,4-thiadiazolo[3,2-a]pyrimidines, compositions and use” (priority 1982, dated 1985):

Tests used:
[1] = approximate acute toxicity (LD50); conditions: in vivo, po; mouse, per os, single administration of increasing doses, measured on the seventh day after treatment
Method: In view of their high therapeutic index, the compounds of the invention can be used safely in medicine. For example, the approximate acute toxicity (LD50) of the compounds 2-(3-pyridyl)-5-oxo-5H-1,3,4-thiadiazolo[3,2-a]pyrimidine-6-N-(2-pyridyl)-carboxamide and 5-oxo-5H-1,3,4-thiadiazolo[3,2-a]pyrimidine-6-N-(2-pyridyl)-carboxamide in the mouse, determined by single administration of increasing doses and measured on the seventh day after treatment, is higher than 800 mg/kg per os. Analogous toxicity data have been found for other compounds of the invention.

[2] = tested on: edema formation in the hind paw; experiment: Carrageenin induced oedema (edema formation in the hind paw of rats); type: in vivo; conditions: rat, oral administration; approximate ED50; read-out: Anti-inflammatory activity, Carrageenin induced oedema, ED50
Description: (§1) The hydroxy protecting groups, for instance, may be removed by mild reaction conditions, e.g. acid hydrolysis.
(A) the edema formation in the hind paw of rats in response to a subplantar injection of carrageenin, according to the method of C. A. Winter et al. (J. Pharmac. Exp. Therap. 1963, 141, 369) and P. Lence (Arch. Int. Pharmacodyn., 1962, 136, 237), and
(§2) The following Tables I and II show, for example, the approximate ED50 values of the anti-inflammatory activity in the above mentioned tests, in the rat after oral administration, for a compound of this invention: 2-(3-pyridyl)-5-oxo-5H-1,3,4-thiadiazolo[3,2-a]pyrimidine-6-N-(2-pyridyl)-carboxamide (internal code FCE 22914): […]

[3] = tested on: Reversed Passive Arthus Reaction (RPAR) in rat paw; experiment: Reversed Passive Arthus Reaction (RPAR) in rat paw; type: in vivo; conditions: oral administration, approximate ED50, read-out: Anti-inflammatory activity, RPAR reaction, ED50
Description: as §1
(B) the Reversed Passive Arthus Reaction (RPAR) in rat paw, induced by the interaction of antigen and antibody resulting in the formation of precipitating immune complex, followed by fixation of complement and accumulation of polymorphonuclear leucocytes at a focal point (D. K. Gemmell, J. Cottney and A. J. Lewis, Agents and Actions 9/1 pag. 107, 1979).
as §2

mice = experiment: phenylquinone test in mice (analgesic activity); type: in vivo; conditions: 50 mg/kg, oral administration
Method: The analgesic activity was assessed, for example, by means of the phenylquinone test in mice according to Siegmund: [Siegmund et al. Proc. Soc. Exper. Biol. Med. 95, 729 (1957)]. In this test the compound FCE 22914, for example, gives a 30% inhibition at 50 mg/kg after oral administration. It is known that certain thiadiazolo-pyrimidine derivatives are endowed with anti-allergic and anti-asthma activity, e.g. those described in Published Japan Patent Application No. J57 142989, but such compounds are devoid of any anti-inflammatory and/or analgesic activity.

Work on `O=C(Nc1ccccn1)c1cnc2scnn2c1=O` [5-oxo-5H-1,3,4-thiadiazolo[3,2-a]pyrimidine-6-N-(2-pyridyl)-carboxamide] yielded an LD50 at 168 h [1] greater than 800 mg/kg.

With `O=C(Nc1ccccn1)c1cnc2sc(-c3cccnc3)nn2c1=O` [FCE 22914, 2-(3-pyridyl)-5-oxo-5H-1,3,4-thiadiazolo[3,2-a]pyrimidine-6-N-(2-pyridyl)-carboxamide] the ED50 [2] was 45.9 mg/kg, the ED50 [3] was 85.2 mg/kg and the “inhibition in phenylquinone test (analgesic activity)” value (mice) was 30%. The LD50 at 168 h [1] was greater than 800 mg/kg.
